Assays:
Assay type in all cases: in vivo
[1] = tested on: redroot pigweed (Amaranthus retroflexus); test: Test G Pre-Emergence Protocol; conditions: Amaranthus retroflexus, pre-emergence, 312 h, evaluated after 13 days
Method in brief: (§1)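 Pots of seeds in standard soil were grown for one day in a glasshouse (24/16 °C day/night, 14 h light, 65% humidity), then sprayed with compound in acetone/water 50:50 with 0.5% Tween 20 at 15.625, 62.5 or 250 g/ha. Damage was scored after 13 days on a 0 (none) to 100 (total) scale.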

corn (Zea mays) [2] = test: Test G Pre-Emergence Protocol; conditions: Zea mays, pre-emergence, 312 h, evaluated after 13 days
Method in brief: as §1

[3] = tested on: velvetleaf (Abutilon theophrasti); test: Test G Pre-Emergence Protocol; conditions: Abutilon theophrasti, pre-emergence, 312 h, evaluated after 13 days
Method in brief: as §1

[4] = tested on: giant foxtail (Setaria faberi); test: Test G Pre-Emergence Protocol; conditions: Setaria faberi, pre-emergence, 312 h, evaluated after 13 days
Method in brief: as §1

[5] = tested on: barnyardgrass (Echinochloa crus-galli); test: Test G Pre-Emergence Protocol; conditions: Echinochloa crus-galli, pre-emergence, 312 h, evaluated after 13 days
Method in brief: as §1

[6] = tested on: ivy-leaved morning glory (Ipomoea hederacea); test: Test G Pre-Emergence Protocol; conditions: Ipomoea, pre-emergence, 312 h, evaluated after 13 days
Method in brief: as §1

[7] = tested on: redroot pigweed (Amaranthus retroflexus); test: Test G Post-Emergence Protocol; conditions: Amaranthus retroflexus, post-emergence, 312 h, read-out: Pigweed, Redroot damage rating
Method in brief: (§2)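 Foliar application was made 8 days after sowing, using an aqueous spray of the active in acetone/water (50:50) with 0.5% Tween 20, at doses of 15.625, 62.5 or 250 g/ha. Injury was assessed 13 days later, where 100 meant the plant was fully damaged.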

corn (Zea mays) [8] = test: Test G Post-Emergence Protocol; conditions: Zea mays, post-emergence, 312 h, read-out: Corn damage rating
Method in brief: as §2

[9] = tested on: velvetleaf (Abutilon theophrasti); test: Test G Post-Emergence Protocol; conditions: Abutilon theophrasti, post-emergence, 312 h, read-out: Velvetleaf damage rating
Method in brief: as §2

[10] = tested on: giant foxtail (Setaria faberi); test: Test G Post-Emergence Protocol; conditions: Setaria faberi, post-emergence, 312 h, read-out: Foxtail, Giant damage rating
Method in brief: as §2

[11] = tested on: barnyardgrass (Echinochloa crus-galli); test: Test G Post-Emergence Protocol; conditions: Echinochloa crus-galli, post-emergence, 312 h, read-out: Barnyardgrass damage rating
Method in brief: as §2

[12] = tested on: ivy-leaved morning glory (Ipomoea hederacea); test: Test G Post-Emergence Protocol; conditions: Ipomoea, post-emergence, 312 h, read-out: Morningglory, Ivy-leaved damage rating
Method in brief: as §2

[13] = 15.625 g ai/ha, evaluated after 13 days (100=total damage to plant; 0=no damage to plant)
[14] = 62.5 g ai/ha, evaluated after 13 days, 100=total damage to plant, 0=no damage to plant
[15] = 250 g ai/ha, evaluated after 13 days, 100=total damage to plant, 0=no damage to plant

CN1C[C@@H](c2ccc(C(F)(F)F)cc2)[C@H](C(=O)Nc2n[nH]cc2Cl)C1=O (racemic) [Compound 1658]
pest or weed control at 15.625 g/ha ([1]; 15.625 g ai/ha, read-out: Pigweed, Redroot damage rating (100=total damage to plant; 0=no damage to plant)): 0% | pest or weed control at 62.5 g/ha ([1]; 62.5 g ai/ha, 100=total damage to plant, 0=no damage to plant, read-out: Pigweed, Redroot damage rating): 0% | pest or weed control at 250 g/ha ([1]; 250 g ai/ha, read-out: Pigweed, Redroot damage rating (100=total damage to plant; 0=no damage to plant)): 0% | plant injury at 15.625 g/ha (corn (Zea mays) [2]; 15.625 g ai/ha, read-out: Corn damage rating (100=total damage to plant; 0=no damage to plant)): 0% | plant injury at 62.5 g/ha (corn (Zea mays) [2]; 62.5 g ai/ha, 100=total damage to plant, 0=no damage to plant, read-out: Corn damage rating): 0% | plant injury at 250 g/ha (corn (Zea mays) [2]; 250 g ai/ha, read-out: Corn damage rating (100=total damage to plant; 0=no damage to plant)): 0% | pest or weed control at 15.625 g/ha ([3]; 15.625 g ai/ha, read-out: Velvetleaf damage rating (100=total damage to plant; 0=no damage to plant)): 0% | pest or weed control at 62.5 g/ha ([3]; 62.5 g ai/ha, 100=total damage to plant, 0=no damage to plant, read-out: Velvetleaf damage rating): 0% | pest or weed control at 250 g/ha ([3]; 250 g ai/ha, read-out: Velvetleaf damage rating (100=total damage to plant; 0=no damage to plant)): 0% | pest or weed control at 15.625 g/ha ([4]; 15.625 g ai/ha, read-out: Foxtail, Giant damage rating (100=total damage to plant; 0=no damage to plant)): 0% | pest or weed control at 62.5 g/ha ([4]; 62.5 g ai/ha, 100=total damage to plant, 0=no damage to plant, read-out: Foxtail, Giant damage rating): 0% | pest or weed control at 250 g/ha ([4]; 250 g ai/ha, read-out: Foxtail, Giant damage rating (100=total damage to plant; 0=no damage to plant)): 0% | pest or weed control at 15.625 g/ha ([5]; 15.625 g ai/ha, read-out: Barnyardgrass damage rating (100=total damage to plant; 0=no damage to plant)): 0% | pest or weed control at 62.5 g/ha ([5]; 62.5 g ai/ha, 100=total damage to plant, 0=no damage to plant, read-out: Barnyardgrass damage rating): 0% | pest or weed control at 250 g/ha ([5]; 250 g ai/ha, read-out: Barnyardgrass damage rating (100=total damage to plant; 0=no damage to plant)): 0% | pest or weed control at 15.625 g/ha ([6]; 15.625 g ai/ha, read-out: Morningglory, Ivy-leaved damage rating (100=total damage to plant; 0=no damage to plant)): 0% | pest or weed control at 62.5 g/ha ([6]; 62.5 g ai/ha, 100=total damage to plant, 0=no damage to plant, read-out: Morningglory, Ivy-leaved damage rating): 0% | pest or weed control at 250 g/ha ([6]; 250 g ai/ha, read-out: Morningglory, Ivy-leaved damage rating (100=total damage to plant; 0=no damage to plant)): 0% | pest or weed control at 15.625 g/ha [7, 13]: 0% | pest or weed control at 62.5 g/ha [7, 14]: 10% | pest or weed control at 250 g/ha [7, 15]: 40% | plant injury at 15.625 g/ha (corn (Zea mays) [8]; [13]): 0% | plant injury at 62.5 g/ha (corn (Zea mays) [8]; [14]): 0% | plant injury at 250 g/ha (corn (Zea mays) [8]; [15]): 10% | pest or weed control at 15.625 g/ha [9, 13]: 0% | pest or weed control at 62.5 g/ha [9, 14]: 0% | pest or weed control at 250 g/ha [9, 15]: 10% | pest or weed control at 15.625 g/ha [10, 13]: 0% | pest or weed control at 62.5 g/ha [10, 14]: 0% | pest or weed control at 250 g/ha [10, 15]: 20% | pest or weed control at 15.625 g/ha [11, 13]: 0% | pest or weed control at 62.5 g/ha [11, 14]: 0% | pest or weed control at 250 g/ha [11, 15]: 20% | pest or weed control at 15.625 g/ha [12, 13]: 0% | pest or weed control at 62.5 g/ha [12, 14]: 0% | pest or weed control at 250 g/ha [12, 15]: 20%

— patent US12077503B2, “Substituted cyclic amides and their use as herbicides” (FMC CORPORATION, priority 2015, dated 2024)
